The kinase profiling compilation of Christmann-Franck et al. (2016)

Columns and labels:
Test in all cases: radiometric filter-binding kinase assay, Kinase HotSpot
Conditions in all cases: compound 0.5 µM; ATP 10 µM
ABL2 (human) = ABL2 (human) (UniProt P42684)
ACVR1 (human) = ACVR1 (human) (UniProt Q04771)
AKT2 (human) = AKT2 (human) (UniProt P31751)
CAMK1 (human) = CAMK1 (human) (UniProt Q14012)
CDC42BPA (human) = CDC42BPA (human) (UniProt Q5VT25)
CDK3 CCNE1 (human) = CDK3 CCNE1 (human) (UniProt Q00526+P24864)
CHUK (human) = CHUK (human) (UniProt O15111)
CSK (human) = CSK (human) (UniProt P41240)
DAPK1 (human) = DAPK1 (human) (UniProt P53355)
DYRK1B (human) = DYRK1B (human) (UniProt Q9Y463)
EPHA8 (human) = EPHA8 (human) (UniProt P29322)
Chain of EPHA8 (human) (P29322 whole entry, looked up): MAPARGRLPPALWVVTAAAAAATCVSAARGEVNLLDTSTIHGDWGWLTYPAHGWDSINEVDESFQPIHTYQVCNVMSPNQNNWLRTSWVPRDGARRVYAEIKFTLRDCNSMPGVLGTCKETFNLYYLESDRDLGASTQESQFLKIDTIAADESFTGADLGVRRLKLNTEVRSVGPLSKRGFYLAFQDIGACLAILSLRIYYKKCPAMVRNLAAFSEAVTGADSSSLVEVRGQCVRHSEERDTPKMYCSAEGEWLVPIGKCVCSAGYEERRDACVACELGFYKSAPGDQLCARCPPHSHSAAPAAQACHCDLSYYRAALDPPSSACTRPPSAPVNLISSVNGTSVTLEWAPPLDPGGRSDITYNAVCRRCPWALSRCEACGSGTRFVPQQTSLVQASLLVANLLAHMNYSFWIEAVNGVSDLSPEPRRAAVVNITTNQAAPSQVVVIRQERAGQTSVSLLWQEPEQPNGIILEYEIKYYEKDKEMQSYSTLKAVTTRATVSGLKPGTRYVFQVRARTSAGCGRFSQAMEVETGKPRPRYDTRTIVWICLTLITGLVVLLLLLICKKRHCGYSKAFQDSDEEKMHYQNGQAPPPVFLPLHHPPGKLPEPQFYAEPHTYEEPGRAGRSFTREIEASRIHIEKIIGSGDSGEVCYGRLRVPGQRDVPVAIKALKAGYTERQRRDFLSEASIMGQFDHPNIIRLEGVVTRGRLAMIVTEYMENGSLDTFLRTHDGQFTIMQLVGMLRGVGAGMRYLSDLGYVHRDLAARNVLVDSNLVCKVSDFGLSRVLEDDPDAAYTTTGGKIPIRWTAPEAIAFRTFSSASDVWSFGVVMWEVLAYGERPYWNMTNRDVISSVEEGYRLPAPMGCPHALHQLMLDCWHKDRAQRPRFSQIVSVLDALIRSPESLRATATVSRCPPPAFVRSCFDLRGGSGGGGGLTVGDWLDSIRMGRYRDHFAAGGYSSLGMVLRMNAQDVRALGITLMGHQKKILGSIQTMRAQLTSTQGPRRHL

FGFR4 (human) = FGFR4 (human) (UniProt P22455)
FLT1 (human) = FLT1 (human) (UniProt P17948)
HIPK3 (human) = HIPK3 (human) (UniProt Q9H422)
Chain of HIPK3 (human) (Q9H422 whole entry, looked up): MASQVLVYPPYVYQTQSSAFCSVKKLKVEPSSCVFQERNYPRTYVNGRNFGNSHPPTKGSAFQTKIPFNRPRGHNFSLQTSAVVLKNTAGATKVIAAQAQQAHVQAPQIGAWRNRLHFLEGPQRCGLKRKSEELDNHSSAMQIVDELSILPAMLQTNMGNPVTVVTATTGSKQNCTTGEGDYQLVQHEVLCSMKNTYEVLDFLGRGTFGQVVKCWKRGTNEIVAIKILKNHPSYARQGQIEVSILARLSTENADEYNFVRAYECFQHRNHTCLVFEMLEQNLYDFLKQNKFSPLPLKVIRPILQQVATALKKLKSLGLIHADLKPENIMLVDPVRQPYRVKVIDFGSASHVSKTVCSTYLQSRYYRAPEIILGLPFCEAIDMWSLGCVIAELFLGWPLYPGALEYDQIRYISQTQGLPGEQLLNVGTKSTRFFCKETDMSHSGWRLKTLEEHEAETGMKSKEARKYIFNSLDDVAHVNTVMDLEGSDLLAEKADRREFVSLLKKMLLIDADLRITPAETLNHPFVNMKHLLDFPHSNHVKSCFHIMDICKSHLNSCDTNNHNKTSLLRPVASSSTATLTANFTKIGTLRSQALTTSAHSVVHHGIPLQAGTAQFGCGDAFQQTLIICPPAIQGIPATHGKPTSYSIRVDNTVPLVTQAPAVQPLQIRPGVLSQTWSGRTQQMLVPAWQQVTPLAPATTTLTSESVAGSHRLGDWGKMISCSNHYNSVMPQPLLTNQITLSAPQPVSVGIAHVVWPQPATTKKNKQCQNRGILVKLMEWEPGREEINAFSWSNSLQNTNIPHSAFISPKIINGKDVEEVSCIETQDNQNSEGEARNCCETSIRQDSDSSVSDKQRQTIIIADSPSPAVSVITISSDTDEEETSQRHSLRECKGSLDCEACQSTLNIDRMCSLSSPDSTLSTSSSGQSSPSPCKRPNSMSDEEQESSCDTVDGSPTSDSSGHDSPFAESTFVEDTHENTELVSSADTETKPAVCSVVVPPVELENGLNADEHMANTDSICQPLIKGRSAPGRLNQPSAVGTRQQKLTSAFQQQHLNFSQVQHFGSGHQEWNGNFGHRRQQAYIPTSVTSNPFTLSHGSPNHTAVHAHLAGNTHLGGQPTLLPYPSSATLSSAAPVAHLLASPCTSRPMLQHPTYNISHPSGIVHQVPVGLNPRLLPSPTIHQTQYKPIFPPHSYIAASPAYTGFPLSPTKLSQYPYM

IKBKB (human) = IKBKB (human) (UniProt O14920)
INSR (human) = INSR (human) (UniProt P06213)
KIT (human) = KIT (human) (UniProt P10721)
LCK (human) = LCK (human) (UniProt P06239)
Chain of LCK (human) (P06239 whole entry, looked up): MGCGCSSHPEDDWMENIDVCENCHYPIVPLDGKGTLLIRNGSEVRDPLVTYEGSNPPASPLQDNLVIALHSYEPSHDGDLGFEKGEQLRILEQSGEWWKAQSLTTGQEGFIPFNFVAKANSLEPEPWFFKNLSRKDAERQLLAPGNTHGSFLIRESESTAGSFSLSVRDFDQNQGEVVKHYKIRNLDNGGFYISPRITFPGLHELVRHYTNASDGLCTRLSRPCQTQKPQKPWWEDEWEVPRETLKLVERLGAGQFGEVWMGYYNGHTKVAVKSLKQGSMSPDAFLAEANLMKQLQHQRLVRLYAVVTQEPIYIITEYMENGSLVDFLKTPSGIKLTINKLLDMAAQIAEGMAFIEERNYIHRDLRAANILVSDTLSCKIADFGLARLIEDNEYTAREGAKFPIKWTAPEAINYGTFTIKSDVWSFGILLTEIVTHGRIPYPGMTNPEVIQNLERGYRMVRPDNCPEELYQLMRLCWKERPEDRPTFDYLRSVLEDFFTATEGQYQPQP

MAP3K8 (human) = MAP3K8 (human) (UniProt P41279)
MAP4K5 (human) = MAP4K5 (human) (UniProt Q9Y4K4)
MAPK11 (human) = MAPK11 (human) (UniProt Q15759)
Chain of MAPK11 (human) (Q15759 whole entry, looked up): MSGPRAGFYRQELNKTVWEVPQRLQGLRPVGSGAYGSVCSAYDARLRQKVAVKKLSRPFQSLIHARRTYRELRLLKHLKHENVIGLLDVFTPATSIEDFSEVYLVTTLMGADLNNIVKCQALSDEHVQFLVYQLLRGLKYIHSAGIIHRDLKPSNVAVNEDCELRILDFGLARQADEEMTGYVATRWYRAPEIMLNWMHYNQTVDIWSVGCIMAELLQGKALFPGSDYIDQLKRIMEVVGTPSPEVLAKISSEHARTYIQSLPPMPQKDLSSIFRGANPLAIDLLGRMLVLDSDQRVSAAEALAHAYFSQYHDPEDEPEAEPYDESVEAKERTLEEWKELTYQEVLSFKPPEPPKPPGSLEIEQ

MAPKAPK3 (human) = MAPKAPK3 (human) (UniProt Q16644)
MUSK (human) = MUSK (human) (UniProt O15146)
NEK6 (human) = NEK6 (human) (UniProt Q9HC98)
Chain of NEK6 (human) (Q9HC98 whole entry, looked up): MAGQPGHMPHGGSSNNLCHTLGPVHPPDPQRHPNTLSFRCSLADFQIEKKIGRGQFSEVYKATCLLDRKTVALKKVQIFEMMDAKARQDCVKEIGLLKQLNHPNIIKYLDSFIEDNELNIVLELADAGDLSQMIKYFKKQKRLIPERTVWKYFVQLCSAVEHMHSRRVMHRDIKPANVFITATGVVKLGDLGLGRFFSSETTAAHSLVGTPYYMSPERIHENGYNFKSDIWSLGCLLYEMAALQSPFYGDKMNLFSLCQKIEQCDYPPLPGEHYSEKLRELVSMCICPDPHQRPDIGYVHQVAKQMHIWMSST

NEK9 (human) = NEK9 (human) (UniProt Q8TD19)
PAK1 (human) = PAK1 (human) (UniProt Q13153)
PAK2 (human) = PAK2 (human) (UniProt Q13177)
PHKG1 (human) = PHKG1 (human) (UniProt Q16816)
PKN1 (human) = PKN1 (human) (UniProt Q16512)
PRKG2 (human) = PRKG2 (human) (UniProt Q13237)
RET (human) = RET (human) (UniProt P07949)
RPS6KA1 KD1 KD2 (human) = RPS6KA1 KD1 KD2 (human) (UniProt Q15418)
RPS6KA2 KD1 KD2 (human) = RPS6KA2 KD1 KD2 (human) (UniProt Q15349)
RPS6KB1 (human) = RPS6KB1 (human) (UniProt P23443)
SRC (human) = SRC (human) (UniProt P12931)
SRPK1 (human) = SRPK1 (human) (UniProt Q96SB4)
STK3 (human) = STK3 (human) (UniProt Q13188)
TAOK3 (human) = TAOK3 (human) (UniProt Q9H2K8)
TBK1 (human) = TBK1 (human) (UniProt Q9UHD2)
TGFBR2 (human) = TGFBR2 (human) (UniProt P37173)
ULK2 (human) = ULK2 (human) (UniProt Q8IYT8)
VRK1 (human) = VRK1 (human) (UniProt Q99986)

Chain of ABL2 (human) (P42684 whole entry, looked up): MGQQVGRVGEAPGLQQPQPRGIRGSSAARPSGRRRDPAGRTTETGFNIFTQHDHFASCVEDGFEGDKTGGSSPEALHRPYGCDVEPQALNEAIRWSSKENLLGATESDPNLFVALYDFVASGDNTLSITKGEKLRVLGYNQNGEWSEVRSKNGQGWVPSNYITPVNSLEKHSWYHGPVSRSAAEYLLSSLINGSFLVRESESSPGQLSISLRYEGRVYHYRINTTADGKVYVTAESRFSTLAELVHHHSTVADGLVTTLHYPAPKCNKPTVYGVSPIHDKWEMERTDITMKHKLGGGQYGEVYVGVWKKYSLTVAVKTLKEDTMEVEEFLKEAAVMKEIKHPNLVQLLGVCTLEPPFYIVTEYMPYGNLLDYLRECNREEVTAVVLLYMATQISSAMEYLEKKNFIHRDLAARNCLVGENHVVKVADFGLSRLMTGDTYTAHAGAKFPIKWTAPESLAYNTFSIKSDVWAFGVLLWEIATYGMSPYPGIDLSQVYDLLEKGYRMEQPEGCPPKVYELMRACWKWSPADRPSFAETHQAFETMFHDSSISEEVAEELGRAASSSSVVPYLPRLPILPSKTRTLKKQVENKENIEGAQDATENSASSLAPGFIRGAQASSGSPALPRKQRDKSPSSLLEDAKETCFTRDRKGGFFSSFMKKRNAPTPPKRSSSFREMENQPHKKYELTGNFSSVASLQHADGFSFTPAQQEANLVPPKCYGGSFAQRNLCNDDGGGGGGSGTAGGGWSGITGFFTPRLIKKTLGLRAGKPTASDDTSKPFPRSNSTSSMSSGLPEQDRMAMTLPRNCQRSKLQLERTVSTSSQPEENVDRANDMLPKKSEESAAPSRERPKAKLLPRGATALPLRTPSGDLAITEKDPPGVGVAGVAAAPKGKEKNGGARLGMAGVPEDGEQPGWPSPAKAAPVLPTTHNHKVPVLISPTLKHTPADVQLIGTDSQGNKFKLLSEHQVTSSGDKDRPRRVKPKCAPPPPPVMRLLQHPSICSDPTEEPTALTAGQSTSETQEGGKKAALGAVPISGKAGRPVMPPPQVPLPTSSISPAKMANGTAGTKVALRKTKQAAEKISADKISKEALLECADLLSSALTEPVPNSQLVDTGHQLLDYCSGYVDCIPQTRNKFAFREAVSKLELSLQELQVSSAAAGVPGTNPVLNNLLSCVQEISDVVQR
Chain of AKT2 (human) (P31751 whole entry, looked up): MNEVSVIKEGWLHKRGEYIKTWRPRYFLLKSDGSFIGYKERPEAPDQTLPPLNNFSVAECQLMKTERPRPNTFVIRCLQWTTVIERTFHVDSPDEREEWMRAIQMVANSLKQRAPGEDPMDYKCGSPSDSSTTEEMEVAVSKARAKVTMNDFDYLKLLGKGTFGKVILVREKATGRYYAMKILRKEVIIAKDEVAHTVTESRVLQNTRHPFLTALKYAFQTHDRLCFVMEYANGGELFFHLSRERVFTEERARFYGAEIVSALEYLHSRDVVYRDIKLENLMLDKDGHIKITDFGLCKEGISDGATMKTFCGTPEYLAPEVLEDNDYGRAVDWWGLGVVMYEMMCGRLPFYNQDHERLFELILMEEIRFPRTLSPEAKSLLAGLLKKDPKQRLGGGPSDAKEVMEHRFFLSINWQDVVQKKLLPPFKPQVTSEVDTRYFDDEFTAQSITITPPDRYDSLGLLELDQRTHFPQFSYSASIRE

CN(C)C[C@H]1CCn2c(c(C3=C(c4cn(C)c5ccccc45)C(=O)NC3=O)c3ccccc32)C1
residual activity (ABL2 (human)): 96.3%
residual activity (ACVR1 (human)): 93.3%
residual activity (AKT2 (human)): 92.6%
residual activity (CAMK1 (human)): 105%
residual activity (CDC42BPA (human)): 98.1%
residual activity (CDK3 CCNE1 (human)): 62.4%
residual activity (CHUK (human)): 103%
residual activity (CSK (human)): 104%
residual activity (DAPK1 (human)): 94.1%
residual activity (DYRK1B (human)): 92.2%
residual activity (EPHA8 (human)): 102%
residual activity (FGFR4 (human)): 89.6%
residual activity (FLT1 (human)): 91.3%
residual activity (HIPK3 (human)): 111%
residual activity (IKBKB (human)): 105%
residual activity (INSR (human)): 88%
residual activity (KIT (human)): 92.7%
residual activity (LCK (human)): 96.5%
residual activity (MAP3K8 (human)): 95%
residual activity (MAP4K5 (human)): 99.9%
residual activity (MAPK11 (human)): 109%
residual activity (MAPKAPK3 (human)): 97.9%
residual activity (MUSK (human)): 85.6%
residual activity (NEK6 (human)): 94.6%
residual activity (NEK9 (human)): 97.6%
residual activity (PAK1 (human)): 99.8%
residual activity (PAK2 (human)): 85.1%
residual activity (PHKG1 (human)): 78.4%
residual activity (PKN1 (human)): 7.06%
residual activity (PRKG2 (human)): 90.7%
residual activity (RET (human)): 99.7%
residual activity (RPS6KA1 KD1 KD2 (human)): 5.9%
residual activity (RPS6KA2 KD1 KD2 (human)): 3.57%
residual activity (RPS6KB1 (human)): 20%
residual activity (SRC (human)): 101%
residual activity (SRPK1 (human)): 103%
residual activity (STK3 (human)): 102%
residual activity (TAOK3 (human)): 96.4%
residual activity (TBK1 (human)): 91.4%
residual activity (TGFBR2 (human)): 98.5%
residual activity (ULK2 (human)): 105%
residual activity (VRK1 (human)): 105%

CC(C)[C@H](CO)Nc1nc(Nc2cc(N)cc(Cl)c2)c2ncn(C(C)C)c2n1
residual activity (ABL2 (human)): 21.3%
residual activity (ACVR1 (human)): 99.4%
residual activity (AKT2 (human)): 100%
residual activity (CAMK1 (human)): 95.3%
residual activity (CDC42BPA (human)): 99.4%
residual activity (CDK3 CCNE1 (human)): 31.9%
residual activity (CHUK (human)): 97.3%
residual activity (CSK (human)): 79.3%
residual activity (DAPK1 (human)): 95.3%
residual activity (DYRK1B (human)): 38.3%
residual activity (EPHA8 (human)): 92.5%
residual activity (FGFR4 (human)): 93.4%
residual activity (FLT1 (human)): 97.5%
residual activity (HIPK3 (human)): 99.4%
residual activity (IKBKB (human)): 104%
residual activity (INSR (human)): 85%
residual activity (KIT (human)): 86.2%
residual activity (LCK (human)): 70.2%
residual activity (MAP3K8 (human)): 109%
residual activity (MAP4K5 (human)): 82.5%
residual activity (MAPK11 (human)): 96.3%
residual activity (MAPKAPK3 (human)): 98.4%
residual activity (MUSK (human)): 46%
residual activity (NEK6 (human)): 111%
residual activity (NEK9 (human)): 69.4%
residual activity (PAK1 (human)): 81.8%
residual activity (PAK2 (human)): 95.5%
residual activity (PHKG1 (human)): 81.1%
residual activity (PKN1 (human)): 93.3%
residual activity (PRKG2 (human)): 88.8%
residual activity (RET (human)): 61.6%
residual activity (RPS6KA1 KD1 KD2 (human)): 37.2%
residual activity (RPS6KA2 KD1 KD2 (human)): 48.7%
residual activity (RPS6KB1 (human)): 95.5%
residual activity (SRC (human)): 3.75%
residual activity (SRPK1 (human)): 62.1%
residual activity (STK3 (human)): 70%
residual activity (TAOK3 (human)): 86.9%
residual activity (TBK1 (human)): 86.6%
residual activity (TGFBR2 (human)): 93.5%
residual activity (ULK2 (human)): 74.9%
residual activity (VRK1 (human)): 85.8%

O=C1NC(=O)/C(=C\c2ccc3nccnc3c2)S1
residual activity (ABL2 (human)): 96.8%
residual activity (ACVR1 (human)): 102%
residual activity (AKT2 (human)): 101%
residual activity (CAMK1 (human)): 95.7%
residual activity (CDC42BPA (human)): 93.1%
residual activity (CDK3 CCNE1 (human)): 91.7%
residual activity (CHUK (human)): 86.7%
residual activity (CSK (human)): 86.3%
residual activity (DAPK1 (human)): 105%
residual activity (DYRK1B (human)): 31.3%
residual activity (EPHA8 (human)): 94.2%
residual activity (FGFR4 (human)): 98%
residual activity (FLT1 (human)): 87.5%
residual activity (HIPK3 (human)): 92.4%
residual activity (IKBKB (human)): 96.1%
residual activity (INSR (human)): 108%
residual activity (KIT (human)): 87.5%
residual activity (LCK (human)): 98.6%
residual activity (MAP3K8 (human)): 99.6%
residual activity (MAP4K5 (human)): 85.4%
residual activity (MAPK11 (human)): 99.2%
residual activity (MAPKAPK3 (human)): 104%
residual activity (MUSK (human)): 16.2%
residual activity (NEK6 (human)): 109%
residual activity (NEK9 (human)): 111%
residual activity (PAK1 (human)): 96%
residual activity (PAK2 (human)): 98.4%
residual activity (PHKG1 (human)): 91.3%
residual activity (PKN1 (human)): 101%
residual activity (PRKG2 (human)): 106%
residual activity (RET (human)): 97.7%
residual activity (RPS6KA1 KD1 KD2 (human)): 80.7%
residual activity (RPS6KA2 KD1 KD2 (human)): 85.4%
residual activity (RPS6KB1 (human)): 91.2%
residual activity (SRC (human)): 102%
residual activity (SRPK1 (human)): 110%
residual activity (STK3 (human)): 104%
residual activity (TAOK3 (human)): 93.1%
residual activity (TBK1 (human)): 90.6%
residual activity (TGFBR2 (human)): 108%
residual activity (ULK2 (human)): 104%
residual activity (VRK1 (human)): 94.9%

O=C1NC(=O)C(c2cn(CCCO)c3ncccc23)=C1c1cnccn1
residual activity (ABL2 (human)): 83.7%
residual activity (ACVR1 (human)): 97%
residual activity (AKT2 (human)): 114%
residual activity (CAMK1 (human)): 101%
residual activity (CDC42BPA (human)): 78.6%
residual activity (CDK3 CCNE1 (human)): 89.4%
residual activity (CSK (human)): 86.9%
residual activity (DAPK1 (human)): 74.4%
residual activity (DYRK1B (human)): 93.2%
residual activity (EPHA8 (human)): 86.9%
residual activity (FGFR4 (human)): 91.5%
residual activity (FLT1 (human)): 89.4%
residual activity (HIPK3 (human)): 89.2%
residual activity (IKBKB (human)): 87.3%
residual activity (INSR (human)): 92.9%
residual activity (KIT (human)): 93%
residual activity (LCK (human)): 95.8%
residual activity (MAP3K8 (human)): 97%
residual activity (MAP4K5 (human)): 37.5%
residual activity (MAPK11 (human)): 105%
residual activity (MAPKAPK3 (human)): 103%
residual activity (MUSK (human)): 67.1%
residual activity (NEK6 (human)): 94.2%
residual activity (NEK9 (human)): 93.4%
residual activity (PAK1 (human)): 101%
residual activity (PAK2 (human)): 105%
residual activity (PHKG1 (human)): 87.2%
residual activity (PKN1 (human)): 97.8%
residual activity (PRKG2 (human)): 118%
residual activity (RET (human)): 54.5%
residual activity (RPS6KA1 KD1 KD2 (human)): 94.8%
residual activity (RPS6KA2 KD1 KD2 (human)): 73.2%
residual activity (RPS6KB1 (human)): 90.2%
residual activity (SRC (human)): 78.9%
residual activity (SRPK1 (human)): 98%
residual activity (STK3 (human)): 74.4%
residual activity (TAOK3 (human)): 88.2%
residual activity (TBK1 (human)): 98.8%
residual activity (TGFBR2 (human)): 122%
residual activity (ULK2 (human)): 96.7%
residual activity (VRK1 (human)): 86.4%
